18 compounds from ChEMBL document CHEMBL3808277, “Identification of a Potent and Selective GPR4 Antagonist as a Drug Lead for the Treatment of Myocardial Infarction” (ACS Med Chem Lett, 2016) can be followed below.

What is called IC50 is the concentration needed to halve the response being measured.

Test [1] has as its target T1, G-prodeshotein coupled receptor 4 (Homo sapiens, UniProt P46093). Nature of the test: Antagonist activity at N-terminal HA-tagged GPR4 (unknown origin) expressed in HEK293 cells assessed as inhibition of pH dependent cAMP response element-driven transcriptional activity at pH 7.2 incubated for 6 hrs by dual luciferase reporter gene assay. Format: functional, cell-based. A general note: A reporter such as luciferase makes a cellular process visible.
Target sequence in this assay (P46093 whole entry): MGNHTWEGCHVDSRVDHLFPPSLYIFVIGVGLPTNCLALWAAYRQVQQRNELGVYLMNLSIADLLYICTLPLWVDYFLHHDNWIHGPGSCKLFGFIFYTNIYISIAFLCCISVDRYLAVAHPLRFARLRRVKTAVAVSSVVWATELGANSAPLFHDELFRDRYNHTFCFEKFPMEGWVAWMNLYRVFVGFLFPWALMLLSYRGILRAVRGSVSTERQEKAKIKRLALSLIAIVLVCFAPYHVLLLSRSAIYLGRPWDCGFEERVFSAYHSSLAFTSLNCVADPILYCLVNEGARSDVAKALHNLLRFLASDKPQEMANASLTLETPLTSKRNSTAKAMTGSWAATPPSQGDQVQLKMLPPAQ

Test [2] deals with T1, G-prodeshotein coupled receptor 4. Put plainly: Antagonist activity at N-terminal HA-tagged GPR4 (unknown origin) expressed in HEK293 cells assessed as pH dependent cAMP response element-driven transcriptional activity ratio at 10 uM at pH 7.2 incubated for 6 hrs by dual luciferase reporter gene assay relative to untreated control. Format: functional, cell-based.
Target sequence in this assay (P46093 whole entry, looked up): as the sequence (P46093 whole entry) above
Test [3] has as its target T2, G-protein coupled receptor 68 (Homo sapiens, UniProt Q15743). Put plainly: Antagonist activity at N-terminal HA-tagged OGR1 (unknown origin) expressed in HEK293 cells assessed as inhibition of pH dependent nuclear factor of activated T-cell activity at pH 7.2 incubated for 6 hrs by dual luciferase reporter gene assay. The format is cell-based.
The target of test [4] is T3, G-protein coupled receptor 65 (Homo sapiens, UniProt Q8IYL9). Nature of the test: Antagonist activity at N-terminal HA-tagged TDAG8 receptor (unknown origin) expressed in HEK293 cells assessed as inhibition of pH dependent cAMP response element-driven transcriptional activity at pH 7.2 incubated for 6 hrs by dual luciferase reporter gene assay. Format: functional, cell-based.
T3 sequence (Q8IYL9 whole entry): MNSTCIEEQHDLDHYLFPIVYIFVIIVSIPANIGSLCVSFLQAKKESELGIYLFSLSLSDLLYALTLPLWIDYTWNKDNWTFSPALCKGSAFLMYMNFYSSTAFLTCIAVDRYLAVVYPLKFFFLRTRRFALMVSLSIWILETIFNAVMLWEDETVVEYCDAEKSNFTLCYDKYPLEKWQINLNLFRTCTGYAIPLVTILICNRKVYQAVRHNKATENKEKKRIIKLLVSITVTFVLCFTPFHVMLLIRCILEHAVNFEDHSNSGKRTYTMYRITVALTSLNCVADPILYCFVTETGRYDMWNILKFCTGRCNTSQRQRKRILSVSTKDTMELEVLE

In test [5] the test system is Mus musculus. Put plainly: Increase in survival of C57BL/6J mouse permanent left anterior descending coronary artery ligation model of myocardial infarction assessed as survival rate at 20 mg/kg/day, ip bid dosed from 1 day before to 7 day after myocardial infarction without operation day measured up to 28 days (reference value: 14.3 %). Format: functional.
Test [6] deals with Mus musculus. Nature of the test: Increase in survival of C57BL/6J mouse permanent left anterior descending coronary artery ligation model of myocardial infarction assessed as survival rate at 6.7 mg/kg/day, ip bid dosed from 1 day before to 7 day after myocardial infarction without operation day measured up to 28 days (reference value: 14.3 %). Format: functional.
Test [7] addresses T3, G-protein coupled receptor 65. Nature of the test: Antagonist activity at N-terminal HA-tagged TDAG8 receptor (unknown origin) expressed in HEK293 cells assessed as inhibition of pH dependent cAMP response element-driven transcriptional activity at >1 uM at pH 7.2 incubated for 6 hrs by dual luciferase reporter gene assay. The format is functional, cell-based.
Test [8] concerns the target T2, G-protein coupled receptor 68. Nature of the test: Antagonist activity at N-terminal HA-tagged OGR1 (unknown origin) expressed in HEK293 cells assessed as inhibition of pH dependent nuclear factor of activated T-cell activity at >1 uM at pH 7.2 incubated for 6 hrs by dual luciferase reporter gene assay. Format: cell-based.

Calls of active or inactive are those of the source. No cut-off for these calls is given here. Bounds are passed on as bounds.

T2 sequence (Q15743 whole entry): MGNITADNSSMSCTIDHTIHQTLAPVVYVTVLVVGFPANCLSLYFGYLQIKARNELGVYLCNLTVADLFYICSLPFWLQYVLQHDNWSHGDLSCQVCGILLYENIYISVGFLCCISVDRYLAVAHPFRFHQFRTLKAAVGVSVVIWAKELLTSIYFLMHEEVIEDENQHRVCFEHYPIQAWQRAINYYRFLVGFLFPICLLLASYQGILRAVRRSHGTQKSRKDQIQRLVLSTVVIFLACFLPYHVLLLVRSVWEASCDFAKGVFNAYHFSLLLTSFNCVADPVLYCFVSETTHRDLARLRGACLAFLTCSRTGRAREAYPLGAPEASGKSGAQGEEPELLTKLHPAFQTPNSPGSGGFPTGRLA

Consider `CCc1nc2c(C)cc(C)nc2n1Cc1ccc2c(c1)Sc1ccccc1N2`, for which the 50% inhibitory concentration (IC50) in test [1] was found to be 910 nM. Besides, the Ratio in test [2] is 0.38.
As for `Cc1nc2ccccc2n1Cc1ccc2c(c1)CCc1ccccc1N2`, the Ratio in test [2] was 0.57.
For `CCc1nc2c(C)cc(C)nc2n1Cc1ccc2ccccc2c1`, the Ratio in test [2] stood at 0.52.
Regarding `CCc1nc2c(C)cc(C)nc2n1Cc1ccc(Nc2ccccc2)cc1`, the IC50 in test [1] was > 10000 nM. Moreover, the Ratio in test [2] was determined as 0.54.
Consider `Cc1nccn1Cc1ccc2c(c1)CCc1ccccc1N2`, for which the Ratio in test [2] stood at 1.24.
As to `CCc1nc2c(C)cc(C)nc2n1Cc1ccc2c(c1)CCc1cc(CN3CCCC3)ccc1N2`, the Ratio in test [2] turned out to be 0.4.
Consider `c1ccc2c(c1)CCc1cc(Cn3cnc4ccccc43)ccc1N2`, for which the IC50 in test [1] is > 10000 nM. Moreover, the Ratio in test [2] came to 0.52.
For the compound `CCc1nccn1Cc1ccc2c(c1)CCc1ccccc1N2`, in test [2], the Ratio was 1.22.
Same read-out and setting: under `CCc1nc2c(C)cc(C)nc2n1Cc1ccc2c(c1)CCc1cc(CN3CCOCC3)ccc1N2` stands 0.41; under `CCc1nc2c(C)cc(C)nc2n1Cc1ccc2c(c1)C=Cc1ccccc1N2`, 0.36.
For `CCc1nc2c(C)cc(C)nc2n1Cc1ccccc1`, the Ratio in test [2] amounted to 0.72.
For the compound `CCc1nc2c(C)cc(C)nc2n1Cc1ccc2c(c1)CCc1cc(CN3CCCCC3)ccc1N2`, the IC50 in test [1] is 67 nM; in test [3], > 10000 nM; in test [4], > 10000 nM. The Ratio in test [2] was 0.39. Moreover, in the test with Mus musculus [5], the survival at 20 mg/kg/day stood at 62.5%. The survival at 6.7 mg/kg/day in the test on Mus musculus [6] was found to be 100%.
On to `CCc1nc2c(C)cc(C)nc2n1Cc1ccc2c(c1)CCc1ccccc1N2`, for which the IC50 in test [1] was determined as 900 nM. Moreover, the Ratio in test [2] worked out at 0.22.
Regarding `c1ccc2c(c1)CCc1cc(Cn3ccnc3)ccc1N2`, in test [2], the Ratio is 1.11.
Still for that read-out and setting: under `c1ccc2c(c1)CCc1cc(Cn3c4ccccc4c4ccccc43)ccc1N2` stands 1.03.
For `CCc1nc2c(C)cc(C)nc2n1Cc1ccc2c(c1)CCc1cc(CN3CCN(C)CC3)ccc1N2`, in test [1], the IC50 was found to be 130 nM. The inhibition entry in test [7] and in test [8] was “Active” in each case. Besides, in test [2], the Ratio amounted to 0.42.
Regarding `CCc1nc2ccccc2n1Cc1ccc2c(c1)CCc1ccccc1N2`, the IC50 in test [1] was > 10000 nM. The Ratio in test [2] came out at 0.44.
As to `c1ccc2c(c1)CCc1cc(Cn3ccc4ccccc43)ccc1N2`, the Ratio in test [2] was 0.44.
